From patent US20070254917A1, “INTRACELLULAR RECEPTOR MODULATOR COMPOUNDS AND METHODS” (priority 2004, published 2007)

Target: T1, human glucocorticoid receptor protein (GR) (Homo sapiens, UniProt P04150)
T1 construct: made in house; host or cells: Sf21 insect cells (baculovirus)
T1 sequence (P04150 1-777): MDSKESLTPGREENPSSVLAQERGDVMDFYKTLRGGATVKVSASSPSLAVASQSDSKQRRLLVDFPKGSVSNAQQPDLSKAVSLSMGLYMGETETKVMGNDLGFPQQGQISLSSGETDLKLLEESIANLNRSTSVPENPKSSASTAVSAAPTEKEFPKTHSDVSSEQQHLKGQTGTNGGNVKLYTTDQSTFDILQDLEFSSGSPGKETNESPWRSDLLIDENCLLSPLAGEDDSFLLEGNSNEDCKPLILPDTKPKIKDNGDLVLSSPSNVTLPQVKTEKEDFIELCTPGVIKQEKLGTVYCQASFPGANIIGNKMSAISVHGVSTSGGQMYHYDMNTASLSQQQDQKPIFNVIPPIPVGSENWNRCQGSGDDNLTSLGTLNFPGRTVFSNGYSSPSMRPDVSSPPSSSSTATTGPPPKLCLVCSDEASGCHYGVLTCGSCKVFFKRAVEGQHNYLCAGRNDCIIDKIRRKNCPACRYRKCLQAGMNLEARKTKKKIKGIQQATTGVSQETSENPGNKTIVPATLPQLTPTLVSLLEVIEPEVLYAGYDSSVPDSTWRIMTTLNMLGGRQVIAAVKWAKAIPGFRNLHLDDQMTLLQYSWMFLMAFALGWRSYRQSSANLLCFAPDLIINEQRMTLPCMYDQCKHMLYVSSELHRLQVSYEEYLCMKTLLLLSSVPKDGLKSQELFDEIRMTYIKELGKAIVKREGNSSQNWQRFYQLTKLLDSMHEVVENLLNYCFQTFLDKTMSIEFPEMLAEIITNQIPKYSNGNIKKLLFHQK
Assay: Glucocorticoid binding assay ([3H]dexamethasone displacement, GR lysate)
Conditions: baculovirus-expressed GR lysate from Sf21 cells; 2-4 nM [3H]dexamethasone; 16 hours at 4° C.; Cheng-Prusoff from IC50
Procedure: A baculovirus expression plasmid comprising cDNA encoding the human glucocorticoid receptor protein (GR) was prepared using standard techniques. […] That expression plasmid was co-transfected together with wild type Autographa californica multiple nuclear polyhedrosis virus DNA into Spodopter frugiperda-21 (Sf-21) cells to generate recombinant virus comprising GR cDNA. […] That recombinant virus comprising GR cDNA was collected.
A suspension culture of uninfected Sf21 cells was grown to a density of 1.2×10^6 cells/ml and then infected with the recombinant virus comprising GR cDNA at a multiplicity of infection of 2. Those infected Sf21 cells were incubated for 48 hours and then collected by centrifugation at 1000×g for 10 minutes at 4° C. The resulting cell pellets were resuspended in lysis buffer (50 mM Potassium Phosphate buffer, pH 7.0, 10 mM Monothioglycerol, 5 mM DTT, 20 mM Sodium Molybdate, 1 mM PMSF, 1 μg/mL aprotinin, and 10 μg/mL leupeptin) and incubated for 15 minutes on ice. Those resuspended cell pellets were homogenized using a Dounce homogenizer and a B pestle. A volume of 2 M KCl was added to the homogenized cell pellets to a final concentration of 0.4 M. The resulting GR lysates were centrifuged at 100,000×g for 60 min at 4° C. and stored for use in binding assays.
Binding assay samples were prepared in separate mini-tubes in a 96-well format at 4° C. […] Each reference compound and test compound was assayed at varying concentrations, ranging from 0 to 10^−5 M. Each concentration of each reference compound and each test compound was assayed in triplicate. The assay samples were incubated for 16 hours at 4° C.
After incubation, 200 μl of 6.25% hydroxylapatite in assay buffer was added to each assay sample to precipitate the protein. The assay samples were then centrifuged and the supernatants were discarded. The resulting pellets were washed twice with assay buffer lacking DTT. Radioactivity in counts per minute (CPM) of each washed pellet was determined by liquid scintillation counter (MicroBeta™, Wallach).

In order of rising Ki:
1. Cc1cc(-c2cccc3c2CCC3=NO)c(Cl)c2c1NC(C)(C)CC2C (racemic) [Compound 154, (±)-5-Chloro-6-(1-hydroxyiminoindan-4-yl)-1,2,3,4-tetrahydro-2,2,4,8-tetramethylquinoline]  0.4 nM
2. Cc1cc(-c2cccc(C#N)c2C)c(Cl)c2c1NC(C)(C)CC2C (racemic) [Compound 155, (±)-5-Chloro-6-(3-cyano-2-methylphenyl)-1,2,3,4-tetrahydro-2,2,4,8-tetramethylquinoline]  1.4 nM
3. Cc1cc(-c2ccc(F)c3c(C)c[nH]c23)c(Cl)c2c1NC(C)(C)CC2C (racemic) [Compound 147, (±)-5-Chloro-6-(4-fluoro-3-methylindol-7-yl)-1,2,3,4-tetrahydro-2,2,4,8-tetramethylquinoline]  2 nM
4. CC(C)=CCC1(C)C(=O)C(C)(C)Nc2c(C)cc(-c3c(C)noc3C)c(Cl)c21 (racemic) [Compound 185, (±)-5-Chloro-4-(3,3-dimethylallyl)-6-(3,5-dimethylisoxazol-4-yl)-1,4-dihydro-2,2,4,8-tetramethyl-2H-quinolin-3-one]  2.5 nM
5. COc1c(C#N)cccc1-c1cc(C)c2c(c1Cl)C(C)C(=O)C(C)(C)N2 (racemic) [Compound 179, (±)-5-Chloro-6-(3-cyano-2-methoxyphenyl)-1,4-dihydro-2,2,4,8-tetramethyl-2H-quinolin-3-one]  2.6 nM
6. COc1c(C#N)cccc1-c1cc(C)c2c(c1Cl)C(C)C(O)C(C)(C)N2 (racemic) [Compound 165, (±)-5-Chloro-6-(3-cyano-2-methoxyphenyl)-1,2,3,4-tetrahydro-3β-hydroxy-2,2,4α,8-tetramethylquinoline]  2.7 nM
7. COc1c(-c2cc(C)c3c(c2Cl)C(C)CC(C)(C)N3)cccc1[N+](=O)[O-] (racemic) [Compound 156, (±)-5-Chloro-1,2,3,4-tetrahydro-6-(2-methoxy-3-nitrophenyl)-2,2,4,8-tetramethylquinoline]  2.9 nM
8. Cc1cc(-c2c(C)noc2C)c(Cl)c2c1NC(C)(C)C(O)C2C (racemic) [Compound 164, (±)-5-Chloro-6-(3,5-dimethylisoxazol-4-yl)-1,2,3,4-tetrahydro-3β-hydroxy-2,2,4α,8-tetramethylquinoline]  3.3 nM
9. COc1c(O)cccc1-c1cc(C)c2c(c1Cl)C(C)CC(C)(C)N2 (racemic) [Compound 151, (±)-5-Chloro-1,2,3,4-tetrahydro-6-(3-hydroxy-2-methoxyphenyl)-2,2,4,8-tetramethylquinoline]  3.6 nM
10. Cc1cc(-c2csc3ccccc23)c(Cl)c2c1NC(C)(C)CC2C (racemic) [Compound 109, (±)-6-(Benzothiophen-3-yl)-5-chloro-1,2,3,4-tetrahydro-2,2,4,8-tetramethylquinoline]  4 nM
11. COc1c(C#N)cccc1-c1cc(C)c2c(c1Cl)C(C)C(O)C(C)(C)N2 (racemic) [Compound 191, (±)-5-Chloro-6-(3-cyano-2-methoxyphenyl)-1,2,3,4-tetrahydro-3α-hydroxy-2,2,4α,8-tetramethylquinoline]  4.8 nM
12. Cc1cc(-c2cccc3c2NCC3)c(Cl)c2c1NC(C)(C)CC2C (racemic) [Compound 210, (±)-5-Chloro-1,2,3,4-tetrahydro-6-(indolin-7-yl)-2,2,4,8-tetramethylquinoline]  5.7 nM
13. Cc1cc(-c2cccc3ccccc23)c(Cl)c2c1NC(C)(C)CC2(C)O (racemic) [Compound 215, (±)-5-Chloro-1,2,3,4-tetrahydro-4-hydroxy-2,2,4,8-tetramethyl-6-(naphthal-1-yl)quinoline]  5.9 nM
14. Cc1cc(-c2cccc3ccccc23)c(Cl)c2c1NC(C)(C)CC2C (racemic) [Compound 135, (±)-5-Chloro-1,2,3,4-tetrahydro-2,2,4,8-tetramethyl-6-(naphthal-1-yl)quinoline]  8.8 nM
15. Cc1cc(-c2c(C)noc2C)c(Cl)c2c1NC(C)(C)C(O)C2C (racemic) [Compound 192, (±)-5-Chloro-6-(3,5-dimethylisoxazol-4-yl)-1,2,3,4-tetrahydro-3α-hydroxy-2,2,4α,8-tetramethylquinoline]  9.4 nM
16. Cc1cc(-c2csc3ccccc23)c(Cl)c2c1NC(C)(C)C(O)C2C (racemic) [Compound 194, (±)-6-(Benzothiophen-3-yl)-5-chloro-1,2,3,4-tetrahydro-3α-hydroxy-2,2,4α,8-tetramethylquinoline]  13 nM
17. COc1ccc(Cl)cc1-c1cc(C)c2c(c1Cl)C(C)CC(C)(C)N2 (racemic) [Compound 121, (±)-5-Chloro-6-(5-chloro-2-methoxyphenyl)-1,2,3,4-tetrahydro-2,2,4,8-tetramethylquinoline]  14 nM
18. Cc1cc(-c2ccccc2Cl)c(Cl)c2c1NC(C)(C)CC2C (racemic) [Compound 118, (±)-5-Chloro-6-(2-chlorophenyl)-1,2,3,4-tetrahydro-2,2,4,8-tetramethylquinoline]  22 nM
19. Cc1cc(-c2cccc3c2OCC(=O)N3)c(Cl)c2c1NC(C)(C)CC2C (racemic) [Compound 204, (±)-6-(2H-1,4-Benzoxazin-3(4H)-on-8-yl)-5-chloro-1,2,3,4-tetrahydro-2,2,4,8-tetramethylquinoline]  26 nM
20. COc1cccc(OC)c1-c1cc(C)c2c(c1Cl)C(C)CC(C)(C)N2 (racemic) [Compound 104, (±)-5-Chloro-6-(2,6-dimethoxyphenyl)-1,2,3,4-tetrahydro-2,2,4,8-tetramethylquinoline]  34 nM
21. CC(C)=CCOc1c(-c2cc(C)c3c(c2Cl)C(C)CC(C)(C)N3)cccc1[N+](=O)[O-] (racemic) [Compound 203, (±)-5-Chloro-1,2,3,4-tetrahydro-2,2,4,8-tetramethyl-6-[2-(methylbut-2-enyloxy)-3-nitrophenyl]quinoline]  56 nM
22. Cc1cc(-c2ccccc2[N+](=O)[O-])c(Cl)c2c1NC(C)(C)CC2C (racemic) [Compound 122, (±)-5-Chloro-1,2,3,4-tetrahydro-2,2,4,8-tetramethyl-6-(2-nitrophenyl)quinoline]  78 nM
23. Cc1cc(-c2cccc(C(F)(F)F)c2F)c(Cl)c2c1NC(C)(C)CC2C (racemic) [Compound 130, (±)-5-Chloro-6-[2-fluoro-3-(trifluoromethyl)phenyl]-1,2,3,4-tetrahydro-2,2,4,8-tetramethylquinoline]  81 nM
24. Cc1cc(-c2cccc3c2OCC(=O)N3C)c(Cl)c2c1NC(C)(C)CC2C (racemic) [Compound 205, (±)-5-Chloro-1,2,3,4-tetrahydro-2,2,4,8-tetramethyl-6-(4-methyl-2H-1,4-benzoxazin-3(4H)-on-8-yl)quinoline]  87 nM
25. CC(=O)c1ccccc1-c1cc(C)c2c(c1Cl)C(C)CC(C)(C)N2 (racemic) [Compound 119, (±)-6-(2-Acetylphenyl)-5-chloro-1,2,3,4-tetrahydro-2,2,4,8-tetramethylquinoline]  97 nM
26. Cc1cc(-c2ccsc2)c(Cl)c2c1NC(C)(C)C(O)C2C (racemic) [Compound 160, (±)-5-Chloro-1,2,3,4-tetrahydro-3β-hydroxy-2,2,4α,8-tetramethyl-6-(thiophen-3-yl)quinoline]  130 nM
27. Cc1cc(-c2cc3ccccc3s2)c(Cl)c2c1NC(C)(C)CC2C (racemic) [Compound 116, (±)-6-(Benzothiophen-2-yl)-5-chloro-1,2,3,4-tetrahydro-2,2,4,8-tetramethylquinoline]  420 nM
